Test results as given in patent US5034510A, “Antibacterial substance” (Shin-Etsu Chemical Co., Ltd., priority 1986, dated 1991).
Where no end group is shown, it is not given here.

Assays:
Assay in all cases: MIC by broth dilution method
Format in all cases: cell-based
[1] = system: Pseudomonas aeruginosa; details: P. aeru
Procedure: (§1) Using the substances finally obtained in the above-described Experiments 35 to 42 and having no blocking group, MIC (minimum growth inhibitory concentration) against various bacteria was examined according to the broth dilution method, and the antibacterial activities were evaluated.
(§2) H--(1-23)--NH(CH2)7 CH3 was synthesized according to the same procedures as described in Experiments 1 to 35, and the antibacterial activities thereof against various bacteria were examined in the same manner as in Example 1.

[2] = system: Salmonella enteritidis IFO 3313; details: S. ent 3313
Procedure: as §1, §2

[3] = system: E. coli JC-2
Procedure: as §1, §2

[4] = system: Proteus mirabilis 129; details: P. mira 129
Procedure: as §1, §2

[5] = system: Streptococcus hemolyticus; details: S. hemo
Procedure: as §1, §2

[6] = system: Escherichia coli D 21
Procedure: as §1, §2

[7] = system: Escherichia coli NIHJ; details: E. coli NIHJ
Procedure: as §1, §2

[8] = system: Proteus mirabilis 1287; details: P. mira 1287
Procedure: as §1, §2

[9] = system: Staphylococcus aureus FDA 209P; details: S. aure 209-P
Procedure: as §1, §2

[10] = system: Micrococcus luteus ML II; details: M. lute ML II
Procedure: as §1, §2

[11] = system: Bacillus subtilis PCI 219; details: B. sub 219
Procedure: as §1, §2

[12] = system: Pseudomonas aeruguinosa OT 97; details: P. aeru OT 97
Procedure: as §1, §2

[13] = system: Enterobacter aerogenes IFO 13545; details: E. aero 13534
Procedure: as §1, §2

[14] = system: Pseudomonas aeruginosa 99; details: P. aeru 99
Procedure: as §1, §2

For “RWKIFKKIEKMGRNIRDGIVKAGPAIEVLGSAKAI-NH2 [Synthetic lepidopteran A, lepidopteran A, reference compound]”, the MIC ([1]; Table 1) was 8 µg/mL, the MIC ([1]; Table 2) was 8 µg/mL and the MIC ([2]; Table 1) was 4 µg/mL. The MIC ([2]; Table 2) was 4 µg/mL, the MIC ([3]; Table 1) was 4 µg/mL and the MIC ([3]; Table 2) was 4 µg/mL. For the same substance, the MIC ([4]; Table 1) was 32 µg/mL, the MIC ([4]; Table 2) was 32 µg/mL and the MIC ([5]; Table 1) was “-- (Symbol "--" is meant to be MIC > 250 mcg/ml)”. The MIC ([5]; Table 2) was “-- (Symbol "--" is meant to be MIC > 250 mcg/ml)”, the MIC ([6]; E. coli D 21, Table 1) was 2 µg/mL and the MIC ([6]; E. coli D, Table 2) was 2 µg/mL. The MIC ([7]; Table 1) was 4 µg/mL, the MIC ([7]; Table 2) was 4 µg/mL and the MIC ([8]; Table 1) was 32 µg/mL. It also gave an MIC ([8]; Table 2) of 32 µg/mL, an MIC ([9]; Table 1) of 8 µg/mL and an MIC ([9]; Table 2) of 125 µg/mL. It also gave an MIC ([10]; Table 1) of 2 µg/mL, an MIC ([10]; Table 2) of 2 µg/mL and an MIC ([11]; Table 1) of 32 µg/mL. For the same substance, the MIC ([11]; Table 2) was 32 µg/mL, the MIC ([12]; Table 1) was 8 µg/mL and the MIC ([12]; Table 2) was 8 µg/mL. The MIC ([13]; Table 1) was 8 µg/mL, the MIC ([13]; Table 2) was 8 µg/mL and the MIC ([14]; Table 1) was 8 µg/mL. The MIC ([14]; Table 2) was 8 µg/mL.
